In PMC6868852, “Molecular cloning and characterization of a grapevine (Vitis vinifera L.) serotonin N-acetyltransferase (VvSNAT2) gene involved in plant defense” (BMC Genomics, 2019) one finds Km data, which are given here for one compound.

Molecules are shown by their SMILES.

By Km is commonly meant the substrate concentration at which the rate is half of its maximum.

The subject of this test is VvSNAT2. Put plainly: HPLC product quantification; Lineweaver-Burk. It is filed as biochemical, Vitis vinifera. As to conditions: acetyl-CoA 0.5 mM; 100 mM potassium phosphate pH 8.8; 30 min at 45 °C (Fig. 3 legend; Methods print below 30 °C).

Turning to `NCCc1c[nH]c2ccc(O)cc12` [serotonin], the Km is 392 µM.
